Test results taken from patent publication EP4786454A1, “HETEROARYL DERIVATIVE AND USE THEREOF” (priority 2023, dated 2025).

Assays:
[1] = Stability in liver microsomes (mouse); format: in vitro ADME, CD-1 mice; conditions: m (CD-1 mouse liver microsomes), 0.5 mg/mL, read-out: MMS Clint
Description: The purpose of this study was to evaluate the phase I metabolic stability of the assay sample in liver microsomes from CD-1 mice, Sprague-Dawley (SD) rats, beagle dogs, cynomolgus monkeys, and human.
The animal and human liver microsomes used in this assay system were purchased from Xenotech, Corning, or other qualified suppliers.
Preparation of buffer: 73.21 g of potassium phosphate dibasic trihydrate and 10.78 g of potassium dihydrogen phosphate were dissolved in 4000 mL of ultrapure water. The pH of the solution was adjusted to the range of 7.40 ± 0.10 using 10.0% phosphoric acid or 1.00 M potassium hydroxide. Its final concentration was 100 mM.
Preparation of working solutions: An assay sample powder was prepared into a 10.0 mM stock solution with DMSO, and then further diluted with a suitable organic solvent. The control compounds testosterone, diclofenac, and propafenone were prepared into 10.0 mM stock solutions using DMSO, and then further diluted with a suitable organic solvent.
Preparation of liver microsome solution: Microsomes of various species were diluted with 100 mM potassium phosphate buffer to a working solution of 0.56 mg/mL. The final concentration of microsomes in the reaction system was 0.500 mg/mL. Detailed preparation procedures were described in the experimental records.
Preparation of reduced nicotinamide adenine dinucleotide phosphate (NADPH) solution: An appropriate amount of reduced nicotinamide adenine dinucleotide phosphate was dissolved in magnesium chloride solution, and the mixture was shaken to mix well. The final concentrations in the reaction system were 1.00 mM NADPH and 1.00 mM magnesium chloride, respectively. Detailed preparation procedures were described in the experimental records.
Preparation of stop solution: The stop solution was prepared using acetonitrile containing internal standards (tolbutamide and labetalol). The prepared stop solution was stored at 2.0 to 8.0 °C in a refrigerator. Detailed preparation procedures were described in the experimental records. […]

[2] = Plasma protein binding rate, equilibrium dialysis (mouse plasma); format: in vitro ADME, CD-1 mice; conditions: m (CD-1 mouse plasma), dialysis 4 hours at 37 °C, read-out: Unbound PPB%
Description: (§1) The protein binding rates of the compounds in the plasma of CD-1 mice, Sprague-Dawley rats, beagle dogs, cynomolgus monkeys, and human were determined using equilibrium dialysis method.
(§2) Commercially available plasma, dual-layer dialysis membrane, and equilibrium dialysis device.
(§3) The dual-layer dialysis membrane was soaked in ultrapure water for about 1 hour, removed and then divided into two parts. It was then soaked in an ethanol:water (20:80, v:v) solution for 20 minutes or placed at 2 to 8 °C, and it was valid for 1 month. Before starting the assay, the dialysis membrane was rinsed twice with ultrapure water and then soaked in ultrapure water for another 20 minutes for later use.
(§4) On the day of assay, the frozen plasma of CD-1 mice, Sprague-Dawley rats, beagle dogs, cynomolgus monkeys, and human was thawed in running cold tap water. After the plasma was completely thawed, the plasma was centrifuged at 3220×g for 5 minutes, and the suspended substances and precipitates in it were removed. The pH of the plasma was determined. The plasma with a pH in the range of 7.4 ± 0.1 was directly used, or the plasma with a pH in the range of 7.4 ± 0.1 after an adjustment with 1% phosphoric acid or 1M sodium hydroxide was used.
(§5) Preparation process of plasma samples: 597 µL of blank plasma from each of the above five species was taken, respectively. 3 µL of a compound or warfarin working solution was added, and the mixture was mixed thoroughly to give a plasma sample with a compound concentration of 2 µM and a warfarin concentration of 2 µM (n=1). The concentration of the organic phase DMSO was 0.5%. The sample was thoroughly mixed before proceeding to the next step.
(§6) Preparation process of T0 samples: 50 µL of a plasma sample containing the compound and warfarin was transferred to a sample receiving plate (n=3), and 50 µL of blank PBS was immediately added. Then, 500 µL of stop solution was added to the T0 sample of the compound and warfarin, and the mixture was stored at 2 to 8 °C, waiting to be processed later together with other dialysis-processed samples.
(§7) Dialysis process of plasma samples: 100 µL of a compound (2 µM) and warfarin (2 µM) plasma sample was added to the donor of each dialysis well (n=3), and 100 µL of blank PBS was added to the corresponding receiver of the dialysis well. The dialysis plate was placed in a 5% CO2 incubator, and incubated at 37 °C with shaking at approximately 100 rpm for 4 hours.
(§8) After the dialysis was completed, 50 µL of dialysis-processed PBS sample and dialysis-processed plasma sample (n=3) were transferred to a new 96-well plate (sample receiving plate). The corresponding volume of the corresponding blank plasma or PBS was added to the sample to make the final volume of each sample well 100 µL, with a plasma to PBS volume ratio of 1:1. All the samples were analyzed by LC-MS/MS after protein precipitation.
(§9) The formulas for calculating the unbound fraction (%Unbound), bound fraction (%Bound) and recovery fraction (%Recovery) of a compound are as follows: %Unbound = 100 ×F / T %Bound = 100 - %Unbound %Recovery = 100 ×(F + T)/ T0 wherein F is the concentration of the compound at the receiver of dialysis; T is the concentration of the compound at the supply end of dialysis; and T0 is the concentration of the compound in the plasma at time zero.

[3] = Plasma protein binding rate, equilibrium dialysis (rat plasma); format: in vitro ADME, Sprague-Dawley rats; conditions: r (Sprague-Dawley rat plasma), dialysis 4 hours at 37 °C, read-out: Unbound PPB%
Description: as §1, §2, §3, §4, §5, §6, §7, §8, §9

Structure (SMILES)	CLint scaled at 1 µM [1]	fraction unbound at 4 h, 2 µM [2]	fraction unbound at 4 h, 2 µM [3]
CC(C)(C)CC(=O)Nc1nc2c(F)cc(C#N)cn2c1-c1ccc(OC(F)(F)F)cc1 [Compound 1]	220 mL/min/kg	0.047	0.071
CC(C)(C)CC(=O)Nc1nc2c(F)cc(C#N)cn2c1C1=CCCC1 [Compound 3]	103 mL/min/kg	0.087	0.097
CC(C)(C)CC(=O)Nc1nc2c(F)cc(C#N)cn2c1C12CC(C1)C2 [Compound 5]	< 38 mL/min/kg	0.141	0.166
